Assays:
[1] = tested on: blackgrass; assay: Test C postemergence; type: in vivo, Alopecurus myosuroides; conditions: 10 days, 0 to 100 scale (0 no effect, 100 complete control)
Summary of the method: (§1)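 Visual injury ratings on a 0–100 scale (100 = complete control) were made against untreated controls 10 days after treatment in the greenhouse. Compounds, formulated with surfactant in non-phytotoxic solvent, were sprayed on soil preemergence or onto one- to two-leaf plants 2–10 cm tall postemergence.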

[2] = tested on: oat, wild; assay: Test C preemergence; type: in vivo, Avena fatua; conditions: for Oat, Wild plant response rating: 500 g ai/ha, preemergence, 0 to 100 scale (0 no effect, 100 complete control); for Plant response rating, Oat, Wild: Preemergence, 125 g ai/ha, 0 to 100 scale, 0 no effect, 100 complete control
Summary of the method: as §1

[3] = tested on: ragweed; assay: Test C preemergence; type: in vivo, Ambrosia artemisiifolia; conditions: for Ragweed plant response rating: 500 g ai/ha, preemergence, 0 to 100 scale (0 no effect, 100 complete control); for Plant response rating, Ragweed: Preemergence, 125 g ai/ha, 0 to 100 scale, 0 no effect, 100 complete control
Summary of the method: as §1

[4] = tested on: corn; assay: Test C postemergence; type: in vivo, Zea mays; conditions: 10 days, 0 to 100 scale (0 no effect, 100 complete control)
Summary of the method: as §1

[5] = tested on: sedge, umbrella; assay: Test D flooded paddy test; type: in vivo, Cyperus difformis; conditions: 250 g ai/ha, applied to paddy water, visual rating after 13 to 14 days, scale 0 to 100 (0 no effect, 100 complete control)
Summary of the method: (§2)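 Compounds go straight into paddy water over 2-leaf plants in pots flooded to 3 cm. Greenhouse holding lasts 13 to 14 days. Injury is scored by eye against controls from 0 (none) to 100 (complete control).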

[6] = tested on: barnyardgrass; assay: Test D flooded paddy test; type: in vivo, Echinochloa crus-galli; conditions: 250 g ai/ha, applied to paddy water, visual rating after 13 to 14 days, scale 0 to 100 (0 no effect, 100 complete control)
Summary of the method: as §2

[7] = tested on: galium; assay: Test C postemergence; type: in vivo, Galium aparine; conditions: 10 days, 0 to 100 scale (0 no effect, 100 complete control)
Summary of the method: as §1

[8] = tested on: ragweed; assay: Test C postemergence; type: in vivo, Ambrosia artemisiifolia; conditions: Postemergence, 125 g ai/ha; 0 to 100 scale (0 no effect, 100 complete control), 10 days
Summary of the method: as §1

[9] = tested on: soybean; assay: Test C postemergence; type: in vivo, Glycine max; conditions: Postemergence, 125 g ai/ha; 0 to 100 scale (0 no effect, 100 complete control), 10 days
Summary of the method: as §1

[10] = tested on: kochia; assay: Test C preemergence; type: in vivo, Bassia scoparia; conditions: for Kochia plant response rating: 500 g ai/ha, preemergence, 0 to 100 scale (0 no effect, 100 complete control); for Plant response rating, Kochia: Preemergence, 125 g ai/ha, 0 to 100 scale, 0 no effect, 100 complete control
Summary of the method: as §1

[11] = tested on: oat, wild; assay: Test C postemergence; type: in vivo, Avena fatua; conditions: 10 days, 0 to 100 scale (0 no effect, 100 complete control)
Summary of the method: as §1

[12] = tested on: wheat; assay: Test C preemergence; type: in vivo, Triticum aestivum; conditions: for Wheat plant response rating: 500 g ai/ha, preemergence, 0 to 100 scale (0 no effect, 100 complete control); for Plant response rating, Wheat: Preemergence, 125 g ai/ha, 0 to 100 scale, 0 no effect, 100 complete control
Summary of the method: as §1

[13] = tested on: rice; assay: Test D flooded paddy test; type: in vivo, Oryza sativa; conditions: 250 g ai/ha, applied to paddy water, visual rating after 13 to 14 days, scale 0 to 100 (0 no effect, 100 complete control)
Summary of the method: as §2

[14] = tested on: barnyardgrass; assay: Test C postemergence; type: in vivo, Echinochloa crusgalli; conditions: 10 days, 0 to 100 scale (0 no effect, 100 complete control)
Summary of the method: as §1

[15] = tested on: barnyardgrass; assay: Test C preemergence; type: in vivo, Echinochloa crusgalli; conditions: for Barnyardgrass plant response rating: 500 g ai/ha, preemergence, 0 to 100 scale (0 no effect, 100 complete control); for Plant response rating, Barnyardgrass: Preemergence, 125 g ai/ha, 0 to 100 scale, 0 no effect, 100 complete control
Summary of the method: as §1

[16] = tested on: kochia; assay: Test C postemergence; type: in vivo, Bassia scoparia; conditions: 10 days, 0 to 100 scale (0 no effect, 100 complete control)
Summary of the method: as §1

[17] = tested on: green foxtail; assay: Test C postemergence; type: in vivo, Setaria viridis; conditions: 10 days, 0 to 100 scale (0 no effect, 100 complete control)
Summary of the method: as §1

[18] = tested on: corn; assay: Test C preemergence; type: in vivo, Zea mays; conditions: for Corn plant response rating: 500 g ai/ha, preemergence, 0 to 100 scale (0 no effect, 100 complete control); for Plant response rating, Corn: Preemergence, 125 g ai/ha, 0 to 100 scale, 0 no effect, 100 complete control
Summary of the method: as §1

[19] = tested on: pigweed, palmer; assay: Test C postemergence; type: in vivo, Amaranthus palmeri; conditions: 10 days, 0 to 100 scale (0 no effect, 100 complete control)
Summary of the method: as §1

[20] = tested on: wheat; assay: Test C postemergence; type: in vivo, Triticum aestivum; conditions: Postemergence, 125 g ai/ha; 0 to 100 scale (0 no effect, 100 complete control), 10 days
Summary of the method: as §1

[21] = tested on: ducksalad; assay: Test D flooded paddy test; type: in vivo, Heteranthera limosa; conditions: 250 g ai/ha, applied to paddy water, visual rating after 13 to 14 days, scale 0 to 100 (0 no effect, 100 complete control)
Summary of the method: as §2

[22] = tested on: ryegrass, Italian; assay: Test C preemergence; type: in vivo, Lolium multiflorum; conditions: for Ryegrass, Italian plant response rating: 500 g ai/ha, preemergence, 0 to 100 scale (0 no effect, 100 complete control); for Plant response rating, Ryegrass, Italian: Preemergence, 125 g ai/ha, 0 to 100 scale, 0 no effect, 100 complete control
Summary of the method: as §1

[23] = tested on: green foxtail; assay: Test C preemergence; type: in vivo, Setaria viridis; conditions: for Foxtail, Green plant response rating: 500 g ai/ha, preemergence, 0 to 100 scale (0 no effect, 100 complete control); for Plant response rating, Foxtail, Green: Preemergence, 125 g ai/ha, 0 to 100 scale, 0 no effect, 100 complete control
Summary of the method: as §1

[24] = tested on: blackgrass; assay: Test C preemergence; type: in vivo, Alopecurus myosuroides; conditions: for Blackgrass plant response rating: 500 g ai/ha, preemergence, 0 to 100 scale (0 no effect, 100 complete control); for Plant response rating, Blackgrass: Preemergence, 125 g ai/ha, 0 to 100 scale, 0 no effect, 100 complete control
Summary of the method: as §1

[25] = tested on: pigweed, palmer; assay: Test C preemergence; type: in vivo, Amaranthus palmeri; conditions: for Pigweed, Palmer plant response rating: 500 g ai/ha, preemergence, 0 to 100 scale (0 no effect, 100 complete control); for Plant response rating, Pigweed, Palmer: Preemergence, 125 g ai/ha, 0 to 100 scale, 0 no effect, 100 complete control
Summary of the method: as §1

[26] = tested on: soybean; assay: Test C preemergence; type: in vivo, Glycine max; conditions: for Soybean plant response rating: 500 g ai/ha, preemergence, 0 to 100 scale (0 no effect, 100 complete control); for Plant response rating, Soybean: Preemergence, 125 g ai/ha, 0 to 100 scale, 0 no effect, 100 complete control
Summary of the method: as §1

[27] = tested on: horseweed; assay: Test C postemergence; type: in vivo, Erigeron canadensis; conditions: 10 days, 0 to 100 scale (0 no effect, 100 complete control)
Summary of the method: as §1

[28] = tested on: ryegrass, Italian; assay: Test C postemergence; type: in vivo, Lolium multiflorum; conditions: Postemergence, 125 g ai/ha; 0 to 100 scale (0 no effect, 100 complete control), 10 days
Summary of the method: as §1

COC[C@H]1CN(C(=O)c2cc(-n3cnc(C(C)C)n3)cc3c2OCCO3)c2cccc(Cl)c2O1 [Compound 395]
90: Plant response rating, Blackgrass ([1]; 500 g ai/ha, postemergence) | Oat, Wild plant response rating [2] | Ragweed plant response rating [3] | Plant response rating, Ragweed [3] | Plant response rating, Corn ([4]; 500 g ai/ha, postemergence) | Plant response rating, Kochia ([16]; Postemergence, 125 g ai/ha) | Plant response rating, Pigweed, Palmer ([19]; Postemergence, 125 g ai/ha) | Ryegrass, Italian plant response rating [22] | Blackgrass plant response rating [24]
80: Wheat plant response rating [12] | Plant response rating, Barnyardgrass [15] | Plant response rating, Foxtail, Green ([17]; 500 g ai/ha, postemergence) | Plant response rating, Ryegrass, Italian [22]
100: Plant response rating, Galium ([7]; 500 g ai/ha, postemergence) | Plant response rating, Galium ([7]; Postemergence, 125 g ai/ha) | Plant response rating, Soybean [9] | Kochia plant response rating [10] | Plant response rating, Kochia [10] | Barnyardgrass plant response rating [15] | Plant response rating, Kochia ([16]; 500 g ai/ha, postemergence) | Plant response rating, Pigweed, Palmer ([19]; 500 g ai/ha, postemergence) | Foxtail, Green plant response rating [23] | Plant response rating, Foxtail, Green [23] | Pigweed, Palmer plant response rating [25] | Plant response rating, Pigweed, Palmer [25] | Soybean plant response rating [26]
30: Plant response rating, Wheat [12] | Plant response rating, Corn [18]
40: Plant response rating, Blackgrass ([1]; Postemergence, 125 g ai/ha) | Plant response rating, Barnyardgrass ([14]; Postemergence, 125 g ai/ha) | Plant response rating, Wheat [20]
60: Plant response rating, Oat, Wild ([11]; 500 g ai/ha, postemergence) | Plant response rating, Horseweed ([27]; 500 g ai/ha, postemergence) | Plant response rating, Ryegrass, Italian [28]
50: Plant response rating, Oat, Wild [2] | Plant response rating, Oat, Wild ([11]; Postemergence, 125 g ai/ha) | Corn plant response rating [18] | Plant response rating, Blackgrass [24] | Plant response rating, Horseweed ([27]; Postemergence, 125 g ai/ha)
0: Plant response rating, Sedge, Umbrella (Flood) [5] | Plant response rating, Barnyardgrass (Flood) [6] | Plant response rating, Rice (Flood) [13] | Plant response rating, Ducksalad (Flood) [21]
70: Plant response rating, Corn ([4]; Postemergence, 125 g ai/ha) | Plant response rating, Ragweed [8] | Plant response rating, Barnyardgrass ([14]; 500 g ai/ha, postemergence) | Plant response rating, Foxtail, Green ([17]; Postemergence, 125 g ai/ha) | Plant response rating, Soybean [26]

CCOC[C@H]1CN(C(=O)c2cc(-n3cnc(C(C)C)n3)cc3c2OCCO3)c2cccc(Cl)c2O1 [Compound 396]
30: Plant response rating, Blackgrass ([1]; Postemergence, 125 g ai/ha) | Plant response rating, Oat, Wild [2] | Wheat plant response rating [12] | Plant response rating, Barnyardgrass ([14]; Postemergence, 125 g ai/ha)
80: Plant response rating, Ragweed [3] | Plant response rating, Kochia ([16]; Postemergence, 125 g ai/ha) | Plant response rating, Foxtail, Green ([17]; 500 g ai/ha, postemergence)
50: Plant response rating, Corn ([4]; Postemergence, 125 g ai/ha) | Plant response rating, Barnyardgrass ([14]; 500 g ai/ha, postemergence) | Plant response rating, Barnyardgrass [15]
60: Plant response rating, Corn ([4]; 500 g ai/ha, postemergence) | Plant response rating, Foxtail, Green ([17]; Postemergence, 125 g ai/ha) | Plant response rating, Ryegrass, Italian [22] | Plant response rating, Soybean [26] | Plant response rating, Horseweed ([27]; 500 g ai/ha, postemergence)
20: Plant response rating, Oat, Wild ([11]; Postemergence, 125 g ai/ha) | Plant response rating, Wheat [20] | Plant response rating, Blackgrass [24]
10: Plant response rating, Corn [18]
0: Plant response rating, Sedge, Umbrella (Flood) [5] | Plant response rating, Barnyardgrass (Flood) [6] | Plant response rating, Wheat [12] | Plant response rating, Rice (Flood) [13] | Plant response rating, Ducksalad (Flood) [21] | Plant response rating, Horseweed ([27]; Postemergence, 125 g ai/ha) | Plant response rating, Ryegrass, Italian [28]
100: Plant response rating, Galium ([7]; 500 g ai/ha, postemergence) | Plant response rating, Galium ([7]; Postemergence, 125 g ai/ha) | Plant response rating, Soybean [9] | Plant response rating, Kochia ([16]; 500 g ai/ha, postemergence) | Foxtail, Green plant response rating [23] | Pigweed, Palmer plant response rating [25] | Plant response rating, Pigweed, Palmer [25] | Soybean plant response rating [26]
40: Plant response rating, Oat, Wild ([11]; 500 g ai/ha, postemergence) | Corn plant response rating [18] | Blackgrass plant response rating [24]
70: Plant response rating, Blackgrass ([1]; 500 g ai/ha, postemergence) | Plant response rating, Ragweed [8] | Plant response rating, Kochia [10]
90: Oat, Wild plant response rating [2] | Ragweed plant response rating [3] | Kochia plant response rating [10] | Barnyardgrass plant response rating [15] | Plant response rating, Pigweed, Palmer ([19]; 500 g ai/ha, postemergence) | Plant response rating, Pigweed, Palmer ([19]; Postemergence, 125 g ai/ha) | Ryegrass, Italian plant response rating [22] | Plant response rating, Foxtail, Green [23]
